# Test results published in PubChem BioAssay (NCI).
#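 Briefly, cells in 96-well plates were exposed to five compound concentrations for 48 h, and endpoints were estimated by linear interpolation. TGI denotes the concentration required for complete inhibition of growth.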
# Legend:
# Test in all cases: DTP human tumour cell line panel, 48 h
# 786-0 renal = tested on: 786-0 renal
# HCT-116 colon = tested on: HCT-116 colon
# HOP-62 NSCLC = tested on: HOP-62 NSCLC
# HS 578T breast = tested on: HS 578T breast
# NCI/ADR-RES ovarian = tested on: NCI/ADR-RES ovarian
# OVCAR-3 ovarian = tested on: OVCAR-3 ovarian
# RPMI-8226 leukemia = tested on: RPMI-8226 leukemia
# SF-539 CNS = tested on: SF-539 CNS
# SK-MEL-2 melanoma = tested on: SK-MEL-2 melanoma
# SN12C renal = tested on: SN12C renal
# SW-620 colon = tested on: SW-620 colon
# CCRF-CEM leukemia = tested on: CCRF-CEM leukemia
SMILES,TGI (786-0 renal) [µM],TGI (HCT-116 colon) [µM],TGI (HOP-62 NSCLC) [µM],TGI (HS 578T breast) [µM],TGI (NCI/ADR-RES ovarian) [µM],TGI (OVCAR-3 ovarian) [µM],TGI (RPMI-8226 leukemia) [µM],TGI (SF-539 CNS) [µM],TGI (SK-MEL-2 melanoma) [µM],TGI (SN12C renal) [µM],TGI (SW-620 colon) [µM],TGI (CCRF-CEM leukemia) [µM]
COc1ccc(-c2c(C#N)c(N)[nH]c(=S)c2C#N)cc1,47.3,93.8,> 100,66.6,> 100,> 100,74.2,> 100,> 100,84.3,> 100,
COc1ccc(C2CC(c3sc(Nc4ccc(C)cc4)nc3C)=NN2)cc1 (stereo unspecified),,15.1,38.3,,32.4,30.1,41.4,29,30.7,28.9,38.2,54.7
CCC(C)C(Nc1c2ccccc2nc2c(C(=O)NCCN(C)C)cccc12)C(=O)O (stereo unspecified),> 100,> 100,> 100,51.6,77.6,> 100,> 100,,46.7,> 100,> 100,> 100
CC(C)CC1c2[nH]c3ccccc3c2C[C@H]2C(=O)NC(Cc3c[nH]c4ccccc34)C(=O)N12 (stereo partly specified),40.2,25.7,45.9,26.2,56.4,30.5,48.7,,32.9,31.1,58.5,
COC(=O)c1ccc(OCCn2nnc(C(=O)NN)c2C(=O)NN)cc1,> 100,> 100,> 100,,> 100,> 100,> 100,,> 100,> 100,,> 100
CCOC(=O)/C(C(N)=O)=C(\O)C(=O)/C=C(\O)c1ccc(Cl)cc1,32.2,28.7,60.7,> 100,45,66.4,44.8,,34.4,32.2,50.1,24.4
Cc1cc(=O)[nH]c2cc(NC(=O)C(C)NC(=O)C(C)NC(=O)C(C)NC(=O)OC(C)(C)C)ccc12 (stereo unspecified),> 15,> 15,> 15,> 15,> 15,,,> 15,> 15,> 15,> 15,> 15
O=C1/C(=C/c2cccc([N+](=O)[O-])c2)N=C(c2ccccc2)N1c1nc2ccc(Sc3ccccc3)cc2[nH]1,> 100,> 100,> 100,> 100,> 100,,> 100,> 100,> 100,> 100,> 100,
COc1cc(/C=C2\C(=O)N(c3cccc(NC(C)=O)c3)C(c3ccccc3)S2(=O)=O)cc(OC)c1OC (stereo unspecified),> 100,> 100,> 100,,> 100,> 100,> 100,> 100,> 100,> 100,> 100,> 100
Cc1[nH]c(=O)nc(N/N=C/c2c3ccccc3c(Cl)c3ccccc23)c1C(=O)Nc1ccc(Cl)cc1,> 100,> 100,> 100,,,> 100,> 100,,> 100,> 100,> 100,89.3
O=C1CCCC2=C1CC1=C(CCCC1=O)N2c1ccc(Cl)cc1,> 100,> 100,> 100,> 100,> 100,> 100,> 100,> 100,,> 100,> 100,> 100
COc1cc(/C=C/c2ccc(OC)c(OC)c2)oc(=O)c1,,> 250,> 250,,> 250,> 250,> 250,> 250,> 250,> 250,> 250,> 250
CCOP(=O)(OCC)C(c1ccc(F)cc1)N(C(=O)NC(F)(F)F)c1ccc(F)cc1 (stereo unspecified),> 100,> 100,> 100,> 100,> 100,> 100,> 100,> 100,,> 100,> 100,> 100
COc1ccc(-c2cc(-c3ccc(C)cc3)n(C3OC(COC(C)=O)C(OC(C)=O)C(OC(C)=O)C3OC(C)=O)c(=S)c2C#N)cc1 (stereo unspecified),> 100,> 100,> 100,> 100,> 100,> 100,> 100,> 100,,> 100,> 100,
CN(C)CCNC(=O)c1cccc2c1C(=O)c1ccccc1C2=O,,66.5,> 31.6,,75.5,52.4,> 100,> 100,> 90.5,> 100,> 91.3,98.9
CCOC(CBr)OC1C(=O)OCC1(C)C (stereo unspecified),> 100,> 100,> 100,> 100,> 100,,> 100,,> 100,> 100,> 100,> 100
CC(O)C(CO)NC(=O)C1CSSCC(NC(=O)C(N)Cc2ccccc2)C(=O)NC(Cc2ccccc2)C(=O)NC(Cc2c[nH]c3ccccc23)C(=O)NC(CCCCN)C(=O)NC(C(C)O)C(=O)N1 (stereo unspecified),> 100,> 100,> 100,,> 100,> 100,> 100,> 100,,> 100,> 100,> 100
COc1ccc2c(c1)/C(=C\c1c(Cl)nc3n1CCS3)C(=O)N2,45.9,25.5,> 100,44.1,88.3,17.8,> 100,24.9,,53.3,> 100,79.2
CN(C)N1C(=O)C(=O)N(c2cccc3ccccc23)C1=O,,> 10,> 10,> 10,> 10,> 10,> 10,> 10,> 10,> 10,> 10,> 10
